We go through 13 compounds from ChEMBL document CHEMBL5390290, “Discovery of Anti-SARS-CoV-2 Nsp9 Binders from Natural Products by a Native Mass Spectrometry Approach” (J Nat Prod, 2023).

Assay [1] addresses Replicase polyprotein 1ab (Severe acute respiratory syndrome coronavirus 2) (UniProt P0DTD1). Description: Binding affinity to recombinant SARS-CoV-2 Nsp9 at 10 uM by Mass spectrometry analysis relative to control.
Assay [2] has the same target. Nature of the assay: Binding affinity to recombinant SARS-CoV-2 Nsp9 at 50 uM by Mass spectrometry analysis relative to control.
The target is the same in assay [3]. Description: Binding affinity to recombinant SARS-CoV-2 Nsp9 at 10 to 50 uM by Mass spectrometry analysis. As to conditions: dose 10-50 µM.
Assay [4] has the same target. Description: Binding affinity to SARS-CoV-2 Nsp9 at 25 uM by LC-MS/MS analysis relative to control.
Assay [5] deals with Replicase polyprotein 1ab (Severe acute respiratory syndrome coronavirus 2, UniProt P0DTD1). Nature of the assay: Binding affinity to recombinant SARS-CoV-2 Nsp9 assessed as dissociation constant by Mass spectrometry analysis.
Assay [6] concerns the target Replicase polyprotein 1ab (Severe acute respiratory syndrome coronavirus 2) (UniProt P0DTD1). Nature of the assay: Binding affinity to recombinant SARS-CoV-2 Nsp9 at 50 uM by Mass spectrometry analysis.

Each structure is given as a SMILES string. Active and inactive are the calls of the source. The calls are words filed in the database; no cut-off is given here.

Take `C=C1C(=O)[C@]23[C@H](O)[C@@H]1[C@@H](O)C[C@H]2[C@]12CCCC(C)(C)[C@H]1[C@H](O)[C@@]3(O)OC2`: the Activity in assay [1] and in assay [2] was 0% in each case. Besides, in assay [3], the outcome was inactive.
Take `C=C1C(=O)[C@]23[C@H](O)[C@@H]1C[C@@H](O)[C@H]2[C@]12CCCC(C)(C)[C@H]1[C@H](O)[C@@]3(O)OC2`: the Activity in assay [1] was determined as 0.15%; in assay [2], 0.89%.
What is called Kd is the constant that tells how readily two partners part at equilibrium. In the case of `CC(C)[C@]1(O)C(OC(=O)c2ccc[nH]2)[C@@]2(O)[C@@]3(C)C[C@]4(O)O[C@@]5([C@H](O)[C@@H](C)CC[C@]35O)[C@@]2(O)[C@@]14C` (stereo partly drawn), the result in assay [4] was Active. The Kd in assay [5] turned out to be 48 µM.
Turning to `C=C1C[C@]23C4C5N(C)C[C@]6(C)C[C@H](O)C[C@@]5([C@@H]2[C@H](OC(=O)/C(C)=C/C)[C@H](OC(=O)/C(C)=C/C)[C@H]14)[C@]6(O)[C@@H](O)[C@@H]3O` (stereo partly drawn), the result in assay [3] was inactive.
With `C=C1C[C@]23C4C5N(C)C[C@]6(C)C[C@H](O)C[C@@]5([C@@H]2[C@H](OC(=O)c2ccc(O)cc2)[C@H](OC(=O)/C(C)=C/C)[C@H]14)[C@]6(O)[C@@H](O)[C@@H]3O` (stereo partly drawn), the outcome in assay [3] was inactive.
As for `C=C1C(=O)[C@@]23[C@H]4O[C@H]5O[C@]2(O)[C@@H](O)[C@@H]2C(C)(C)CC[C@H](O)[C@]52[C@@H]3CC[C@H]14`, the Activity came to 0.27% in assay [1] and 1% in assay [2].
Consider `C=C1C[C@]23C4C5N(C)C[C@]6(C)C[C@H](O)C[C@@]5([C@@H]2[C@H](OC(=O)/C(C)=C/CO)[C@H](OC(=O)/C(C)=C/C)[C@H]14)[C@]6(O)[C@@H](O)[C@@H]3O` (stereo partly drawn), for which the result in assay [3] was inactive.
Same read-out and setting: for `C=C1[C@@H]2C[C@@]3([C@@H]1O)[C@@H](CC2=O)[C@@]12[C@@H]4[C@@H]3C[C@@H]1[C@@](C)(CC[C@@H]2O)CN4CC` the value was “inactive”.
On to `C=C1C(=O)[C@]23[C@H](O)[C@@H]1CC[C@H]2[C@@]12C(O)[C@@]3(O)C(=O)[C@@H]1C(C)(C)CC[C@@H]2O` (stereo partly drawn), for which the Activity was found to be 0.05% in assay [1] and 0.38% in assay [2].
Regarding `C=C1[C@H]2CC[C@H]3[C@@]45CO[C@](O)([C@@H](O)[C@@H]4C(C)(C)CC[C@@H]5O)[C@@]3([C@@H]1O)[C@@H]2O`, the values for the Activity in assay [1] and in assay [2] were 2% and 16%, respectively.
With `C=C1C(=O)[C@]23[C@H](O)[C@@H]1CC[C@H]2[C@@]12CO[C@@]3(O)[C@@H](O)[C@@H]1C(C)(C)CC[C@@H]2O`, in assay [4], the outcome was Active. In addition, the results for the Activity in assay [1] and in assay [2] were 0.71% and 1%, respectively.
As for `C=C1C(=O)[C@]23[C@@H](O)[C@H]1CC[C@H]2[C@@]12COC3(O)C[C@@H]1C(C)(C)CC[C@@H]2O`, the figures for the Activity in assay [1] and in assay [2] were 0% and 0.04%, respectively.
For `C=C1C[C@]23C[C@@]1(O)CC[C@H]2[C@@]12C=C[C@H](O)[C@](C)(C(=O)O1)[C@H]2[C@@H]3C(=O)O`, the outcome in assay [6] was Active.
